# Experimental data published in patent US12421225B2, “Heteroaromatic amide derivative and medicament containing the same” (KAKEN PHARMACEUTICAL CO., LTD., priority 2018, dated 2025).
# Molecular target: human Nav1.7 (Homo sapiens (Human), UniProt Q15858)
# Experiment: Human Nav1.7 inhibitory activity evaluation (automated patch clamp QPatch16X, HEK293A cells stably expressing human Nav1.7 and human Navβ1)
# Type: cell-based
# Details: HEK293A cells stably expressing human Nav1.7 and human Navβ1, automated patch clamp QPatch16X
# Procedure, shortened: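 IC50 calculated from the concentration-response of inward current evoked by the second −10 mV, 50 ms depolarisation, which follows a 15 s conditioning step at roughly 30-40% inactivation and a 100 ms −120 mV interval. Cells: HEK293A expressing human Nav1.7/Navβ1, automated patch clamp, room temperature, 0.1% DMSO final.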
# human Nav1.7, sequence (Q15858 whole entry): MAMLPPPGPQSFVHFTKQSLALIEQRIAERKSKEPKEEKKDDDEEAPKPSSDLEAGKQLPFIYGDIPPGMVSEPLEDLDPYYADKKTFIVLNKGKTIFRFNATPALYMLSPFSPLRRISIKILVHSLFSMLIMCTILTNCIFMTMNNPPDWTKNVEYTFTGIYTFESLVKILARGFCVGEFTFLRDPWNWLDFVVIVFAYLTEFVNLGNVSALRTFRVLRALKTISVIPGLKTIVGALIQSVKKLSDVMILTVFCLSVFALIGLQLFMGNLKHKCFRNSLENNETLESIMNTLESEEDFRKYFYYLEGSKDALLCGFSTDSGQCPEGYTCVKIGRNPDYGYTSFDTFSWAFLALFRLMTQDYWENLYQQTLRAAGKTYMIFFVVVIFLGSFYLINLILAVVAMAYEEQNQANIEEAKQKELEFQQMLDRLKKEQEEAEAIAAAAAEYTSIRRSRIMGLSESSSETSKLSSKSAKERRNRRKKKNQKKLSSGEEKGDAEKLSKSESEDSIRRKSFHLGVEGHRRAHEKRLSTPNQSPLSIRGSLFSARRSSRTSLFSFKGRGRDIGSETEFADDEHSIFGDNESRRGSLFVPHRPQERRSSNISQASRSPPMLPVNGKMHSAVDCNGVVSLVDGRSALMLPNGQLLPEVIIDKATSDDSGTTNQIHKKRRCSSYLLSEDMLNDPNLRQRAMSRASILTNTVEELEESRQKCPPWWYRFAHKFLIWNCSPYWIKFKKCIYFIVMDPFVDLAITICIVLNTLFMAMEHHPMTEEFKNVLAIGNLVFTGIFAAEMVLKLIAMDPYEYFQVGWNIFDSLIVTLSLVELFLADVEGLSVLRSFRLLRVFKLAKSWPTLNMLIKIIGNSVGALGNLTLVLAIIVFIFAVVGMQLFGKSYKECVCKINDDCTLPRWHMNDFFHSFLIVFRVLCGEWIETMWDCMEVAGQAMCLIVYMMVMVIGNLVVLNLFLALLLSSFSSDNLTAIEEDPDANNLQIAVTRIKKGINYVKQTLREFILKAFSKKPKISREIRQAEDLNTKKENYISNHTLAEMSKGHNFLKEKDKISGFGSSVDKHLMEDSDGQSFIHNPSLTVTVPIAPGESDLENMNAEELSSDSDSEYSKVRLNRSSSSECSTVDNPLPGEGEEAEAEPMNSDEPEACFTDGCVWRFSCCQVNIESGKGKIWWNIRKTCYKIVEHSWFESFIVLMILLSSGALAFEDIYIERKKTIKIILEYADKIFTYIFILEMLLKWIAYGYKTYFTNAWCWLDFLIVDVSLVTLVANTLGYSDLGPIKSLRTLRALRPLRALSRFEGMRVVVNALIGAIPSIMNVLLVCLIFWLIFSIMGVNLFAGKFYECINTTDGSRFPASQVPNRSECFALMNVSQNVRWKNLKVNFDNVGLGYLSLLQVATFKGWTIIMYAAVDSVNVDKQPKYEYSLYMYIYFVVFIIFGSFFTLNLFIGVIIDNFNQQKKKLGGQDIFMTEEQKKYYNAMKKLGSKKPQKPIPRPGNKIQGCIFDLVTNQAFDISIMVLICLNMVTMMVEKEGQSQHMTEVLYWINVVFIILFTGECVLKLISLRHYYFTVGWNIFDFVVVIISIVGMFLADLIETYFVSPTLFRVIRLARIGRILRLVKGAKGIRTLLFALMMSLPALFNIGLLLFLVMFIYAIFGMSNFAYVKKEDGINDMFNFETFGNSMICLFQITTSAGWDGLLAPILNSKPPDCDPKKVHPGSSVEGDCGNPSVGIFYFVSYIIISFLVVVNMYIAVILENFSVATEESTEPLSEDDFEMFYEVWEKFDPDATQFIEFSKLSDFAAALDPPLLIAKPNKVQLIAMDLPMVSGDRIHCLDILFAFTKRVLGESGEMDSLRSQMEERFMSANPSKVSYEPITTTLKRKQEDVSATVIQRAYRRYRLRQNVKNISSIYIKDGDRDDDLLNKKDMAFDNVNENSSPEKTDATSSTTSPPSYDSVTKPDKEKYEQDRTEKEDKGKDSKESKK
# human Nav1.7, sequence (Q07699 19-218 partner): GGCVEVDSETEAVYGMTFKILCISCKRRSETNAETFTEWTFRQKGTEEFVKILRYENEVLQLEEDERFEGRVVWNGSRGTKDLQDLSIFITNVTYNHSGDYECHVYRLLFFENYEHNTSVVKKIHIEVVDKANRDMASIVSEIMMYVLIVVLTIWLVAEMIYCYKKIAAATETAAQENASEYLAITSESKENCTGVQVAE
row,IC50,Compound
1,< 1 µM,N#Cc1ccc2c(c1)C[C@@H](NC(=O)c1cc3n(n1)CCC(COC(C(F)(F)F)C(F)(F)F)O3)CO2 (some centres unmarked) [Example 116]
2,< 10 µM,CN1Cc2nc(C(=O)N[C@H]3COc4ccccc4C3)cn2CC1CCc1ccc(F)cc1 (some centres unmarked) [Example 54]
3,< 10 µM,O=C(N[C@H]1COc2ccc(Cl)cc2C1)c1cc2n(n1)CCC(COc1ccncc1)O2 (some centres unmarked) [Example 120]
4,< 10 µM,COc1cc(C2CCn3nc(C(=O)N[C@H]4COc5ccc(C#N)cc5C4)cc3O2)ccn1 (some centres unmarked) [Example 73]
5,< 10 µM,O=C(N[C@H]1COc2ccccc2C1)c1cn2c(n1)CCC(NCc1ccccc1)C2 (some centres unmarked) [Example 42]

# Same assay, conditions: human Nav1.7, automated patch clamp
row,Compound,IC50
1,O=C(N[C@H]1COc2ccc(C(F)(F)F)cc2C1F)c1cc2n(n1)CCC(OCC(F)(F)F)CO2 (some centres unmarked) [Example 679],< 1 µM
2,C=Cc1c(C(=O)N[C@H]2COc3ccccc3C2)nc2n1CC(C(F)(F)F)CC2 (some centres unmarked) [Example 302],< 10 µM
3,O=C(NC1COc2ccc(Cl)cc2C1O)c1cc2n(n1)CCC(COCC1CC1)O2 (centres unmarked) [Example 571],< 10 µM
4,O=C(N[C@H]1COc2ccc(C(F)(F)F)cc2C1OC(F)(F)F)c1cc2n(n1)CCC(C(F)F)O2 (some centres unmarked) [Example 546],< 1 µM
5,O=C(NC1COc2ccc(C(F)(F)F)cc2C1)c1cc2n(n1)CCN(CCC1CC1)C2 (centres unmarked) [Example 264],< 1 µM
6,CN1Cc2nc(C(=O)NCCc3c[nH]c4ccccc34)cn2CC1c1ccccc1 (centres unmarked) [Example 323],< 10 µM
7,"N#Cc1ccc2c(c1)C[C@@H](NC(=O)c1cc3n(n1)CCC(OC(F)(F)F)CO3)CO2 (single isomer, unassigned) [253 (isomer A)]",< 10 µM
8,O=C(N[C@H]1COc2ccccc2C1)c1nc2n(c1CCCO)CC(C(F)(F)F)CC2 (some centres unmarked) [Example 301],< 10 µM
9,"O=C(N[C@H]1COc2ccc(CCOC(F)F)cc2C1)c1cc2n(n1)CCC(C(F)F)O2 (single isomer, unassigned) [165 (isomer B)]",< 10 µM
10,O=C(N[C@H]1COc2ccc(C(F)(F)F)cc2C1F)c1cc2n(n1)CCN(CC1CCOCC1)C2 (some centres unmarked) [Example 642],< 10 µM
11,O=C(N[C@H]1COc2ccc(C(F)(F)F)cc2C1)c1nn2c(c1-c1cccc(CO)n1)COCC2 [Example 519],< 10 µM
12,N#Cc1ccc2c(c1)C[C@@H](NC(=O)c1cc3n(n1)CCC(COCC1CCC1)O3)CO2 (some centres unmarked) [Example 410],< 1 µM
13,O=C(N[C@H]1COc2ccc(COCC(F)(F)F)cc2C1)c1cc2n(n1)CCC(C1CCOCC1)O2 (some centres unmarked) [Example 606],< 1 µM
14,O=C(N[C@H]1COc2ccc(CN3CCOCC3)cc2C1)c1cc2n(n1)CCC(c1ccccc1F)O2 (some centres unmarked) [Example 368],< 10 µM
15,"N#Cc1ccc2c(c1)C[C@@H](NC(=O)c1cc3n(n1)C[C@H](CC1CCOCC1)O3)CO2 (single isomer, unassigned; isomer a) [577(isomer A)]",< 10 µM
16,"O=C(N[C@H]1COc2ccc(C(F)(F)F)cc2C1O)c1cc2n(n1)CC(CSCC(F)(F)F)O2 (single isomer, unassigned) [641 (isomer A)]",< 10 µM

row,Compound,IC50
1,N#Cc1ccc2c(c1)C[C@@H](NC(=O)c1cc3n(n1)CCC(COCCOCC(F)(F)F)O3)CO2 (some centres unmarked) [Example 664],< 10 µM
2,"N#Cc1ccc2c(c1)C[C@@H](NC(=O)c1cc3n(n1)CCC(OC(F)(F)F)CO3)CO2 (single isomer, unassigned) [253 (isomer B)]",< 10 µM
3,O=C(N[C@H]1COc2ccc(C(F)(F)F)cc2C1O)c1cc2n(n1)CC(COCCOCC(F)(F)F)O2 (some centres unmarked) [Example 660],< 10 µM
4,CCC1(O)c2cc(C(F)(F)F)ccc2OC[C@@H]1NC(=O)c1cc2n(n1)CCC(C(F)F)O2 (some centres unmarked) [Example 544],< 10 µM
5,N#Cc1ccc2c(c1)C(F)[C@@H](NC(=O)c1cc3n(n1)CCC(C(F)(F)F)CO3)CO2 (some centres unmarked) [Example 649],< 10 µM
6,O=C(N[C@H]1COc2ccc(C(F)(F)F)cc2C1)c1cc2n(n1)CC(CCN1CCC(F)(F)C1)O2 (some centres unmarked) [Example 476],< 1 µM
7,N#Cc1ccc2c(c1)C[C@@H](NC(=O)c1cc3n(n1)CCC(C#Cc1ccccc1)O3)CO2 (some centres unmarked) [Example 390],< 10 µM
8,N#Cc1ccc2c(c1)C[C@@H](NC(=O)c1cc3n(n1)CC(COCCOCC(F)(F)F)O3)CO2 (some centres unmarked) [Example 659],< 10 µM
9,O=C(N[C@H]1COc2ccc(C(F)(F)F)cc2C1F)c1cc2n(n1)CC(COCCOCC(F)(F)F)O2 (some centres unmarked) [Example 676],< 1 µM
10,"O=C(N[C@H]1COc2ccc(C(F)(F)F)cc2C1O)c1cc2n(n1)CC(CCCOCC(F)(F)F)O2 (single isomer, unassigned) [603 (isomer A)]",< 1 µM
11,CCOc1ncccc1C1CCn2nc(C(=O)N[C@H]3COc4ccc(C#N)cc4C3)cc2O1 (some centres unmarked) [Example 372],< 1 µM
12,N#Cc1ccc2c(c1)C[C@@H](NC(=O)c1cc3n(n1)CCC(COC1CC(F)C1)O3)CO2 (some centres unmarked) [Example 439],< 10 µM
13,O=C(N[C@H]1COc2ccc(C(F)(F)F)cc2C1O)c1cc2n(n1)CC(COCC1CC1)O2 (some centres unmarked) [Example 560],< 1 µM
14,N#Cc1ccc2c(c1)C[C@@H](NC(=O)c1cc3n(n1)CCC(COCC1(C(F)(F)F)CC1)O3)CO2 (some centres unmarked) [Example 434],< 1 µM
15,CC(C)(F)CCC1CCc2nc(C(=O)N[C@H]3COc4ccccc4C3)cn2C1 (some centres unmarked) [Example 320],< 10 µM

# Other lines, results leading:
row,IC50,Compound
1,< 1 µM,Cc1cnc(-c2ccc3c(c2)C[C@@H](NC(=O)c2cc4n(n2)CC(CCOC2CCC2)O4)CO3)cn1 (some centres unmarked) [Example 475]
2,< 1 µM,"O=C(N[C@H]1COc2ccc(C(F)(F)F)cc2C1)c1cc2n(n1)CC(CCN1CCC(F)(F)CC1)O2 (single isomer, unassigned) [242 (isomer A)]"
3,< 1 µM,O=C(N[C@H]1COc2ccc(I)cc2C1)c1cc2n(n1)CCC(C(F)F)O2 (some centres unmarked) [Example 566]
4,< 1 µM,O=C(N[C@H]1COc2ccc(C(F)(F)F)nc2C1)c1cc2n(n1)CCC(c1ccccc1F)O2 (some centres unmarked) [Example 550]
5,< 10 µM,CN1Cc2nc(C(=O)N3CC(Oc4cccc(C(F)(F)F)n4)C3)cn2CC1c1ccccc1 (centres unmarked) [Example 330]
6,< 10 µM,N#Cc1ccc2c(c1)C(O)C(NC(=O)c1cc3n(n1)CCC(c1ccccc1F)O3)CO2 (centres unmarked) [Example 573]
7,< 10 µM,CCC(F)(CC)C1CCc2nc(C(=O)N[C@H]3COc4ccccc4C3)cn2C1 (some centres unmarked) [Example 319]
8,< 10 µM,"O=C(N[C@H]1COc2ccc(-c3cnccn3)cc2C1)c1cc2n(n1)CC(CCOC(F)F)O2 (single isomer, unassigned) [223 (isomer A)]"
9,< 10 µM,O=C(N[C@H]1COc2ccc(COCC(F)(F)F)cc2C1)c1cc2n(n1)CC(C(F)(F)F)O2 (some centres unmarked) [Example 183]
10,< 1 µM,O=C(N[C@H]1COc2ccc(C(F)(F)F)cc2C1)c1nn2c(c1-c1cccc(Cl)n1)COCC2 [Example 485]
11,< 1 µM,O=C(NC1COc2ccccc2C1)c1cc2n(n1)CCN(c1ccc(F)cc1)C2 (centres unmarked) [Example 508]
12,< 10 µM,O=C(N[C@H]1COc2ccccc2C1)c1nc2n(c1-c1ccccc1)CCN(C(=O)C(F)(F)F)C2 [Example 339]
13,< 10 µM,COc1ncc(-c2ccc3c(c2)C[C@@H](NC(=O)c2cc4n(n2)CCC(C(F)(F)F)O4)CO3)cn1 (some centres unmarked) [Example 176]
14,< 10 µM,"O=C(N[C@H]1COc2ccc(Cl)cc2C1)c1cc2n(n1)CCC(C(F)F)O2 (single isomer, unassigned) [158 (isomer B)]"
15,< 1 µM,N#Cc1ccc2c(c1)C[C@@H](NC(=O)c1cc3n(n1)CCC(C1CCC1)O3)CO2 (some centres unmarked) [Example 388]
16,< 10 µM,CN1Cc2nc(C(=O)N3CCC(Oc4cccc(C(F)(F)F)n4)C3)cn2CC1c1cccc(OC(F)(F)F)c1 (centres unmarked) [Example 335]
17,< 10 µM,O=C(N[C@H]1COc2ccc(COCC(F)(F)F)cc2C1)c1nn2c(c1-c1ccccn1)NCCC2 [Example 525]
18,< 1 µM,O=C(N[C@H]1COc2ccc(C(F)(F)F)cc2C1F)c1cc2n(n1)CCN(C1CCOC1)C2 (some centres unmarked) [Example 670]
19,< 10 µM,CCOCc1cccc2c1CC(NC(=O)c1cn3c(n1)CCC(C(F)(F)F)C3)CO2 (centres unmarked) [Example 296]
20,< 10 µM,O=C(N[C@H]1COc2ccc(C(F)(F)F)cc2C1F)c1cc2n(n1)CCN(C1COC1)C2 (some centres unmarked) [Example 643]
21,< 1 µM,O=C(N[C@H]1COc2ccc(C(F)(F)F)cc2C1)c1nn2c(c1-c1cccc(COCC(F)(F)F)n1)COCC2 [Example 520]
22,< 1 µM,O=C(N[C@H]1COc2ccc(Cl)cc2C1)c1cc2n(n1)CCC(CC(F)F)O2 (some centres unmarked) [Example 404]
23,< 1 µM,"O=C(N[C@H]1COc2ccc(C(F)(F)F)cc2C1O)c1cc2n(n1)CC(CCOCC1CC1)O2 (single isomer, unassigned) [636 (isomer A)]"
24,< 1 µM,O=C(N[C@H]1COc2ccc(CCOC(F)(F)F)cc2C1)c1cc2n(n1)CC(CCN1CC(F)(F)C1)O2 (some centres unmarked) [Example 239]
25,< 10 µM,"O=C(N[C@H]1COc2ccc(CC(F)F)cc2C1)c1cc2n(n1)CC(COC(F)(F)F)O2 (single isomer, unassigned) [198 (isomer A)]"
26,< 10 µM,"N#Cc1ccc2c(c1)C[C@@H](NC(=O)c1cc3n(n1)CCC(OCC(F)(F)F)CO3)CO2 (single isomer, unassigned) [255 (isomer A)]"
